target: calcium channel type L (Rattus norvegicus, UniProt P22002); test: Calcium channel type L binding assay, [3H]Nitrendipine displacement; details: rat cortical membranes; [3H]Nitrendipine 0.2 nM; 50 mM TRIS-HCl pH 7.7, 25° C., 60 minutes; nifedipine reference value given beside each test compound
Experimental: In the assay, rat cortical membranes were used as a receptor source and the radioligand [^3H]Nitrendipine (70-87 Ci/mmol) was used at a final ligand concentration of 0.2 nM. […] The reactions were carried out in 50 mM TRIS-HCl (pH 7.7) at 25° C. for 60 minutes. The reaction was terminated by rapid vacuum filtration onto glass fiber filters. Radioactivity trapped onto the filters was determined and compared to control values in order to ascertain any interactions of test compound with the nitredipine binding site (Gould, Murphy, and Snyder. Molecular Pharmacology 25, 235-241 (1984)).

calcium channel type L, sequence (P22002 whole entry): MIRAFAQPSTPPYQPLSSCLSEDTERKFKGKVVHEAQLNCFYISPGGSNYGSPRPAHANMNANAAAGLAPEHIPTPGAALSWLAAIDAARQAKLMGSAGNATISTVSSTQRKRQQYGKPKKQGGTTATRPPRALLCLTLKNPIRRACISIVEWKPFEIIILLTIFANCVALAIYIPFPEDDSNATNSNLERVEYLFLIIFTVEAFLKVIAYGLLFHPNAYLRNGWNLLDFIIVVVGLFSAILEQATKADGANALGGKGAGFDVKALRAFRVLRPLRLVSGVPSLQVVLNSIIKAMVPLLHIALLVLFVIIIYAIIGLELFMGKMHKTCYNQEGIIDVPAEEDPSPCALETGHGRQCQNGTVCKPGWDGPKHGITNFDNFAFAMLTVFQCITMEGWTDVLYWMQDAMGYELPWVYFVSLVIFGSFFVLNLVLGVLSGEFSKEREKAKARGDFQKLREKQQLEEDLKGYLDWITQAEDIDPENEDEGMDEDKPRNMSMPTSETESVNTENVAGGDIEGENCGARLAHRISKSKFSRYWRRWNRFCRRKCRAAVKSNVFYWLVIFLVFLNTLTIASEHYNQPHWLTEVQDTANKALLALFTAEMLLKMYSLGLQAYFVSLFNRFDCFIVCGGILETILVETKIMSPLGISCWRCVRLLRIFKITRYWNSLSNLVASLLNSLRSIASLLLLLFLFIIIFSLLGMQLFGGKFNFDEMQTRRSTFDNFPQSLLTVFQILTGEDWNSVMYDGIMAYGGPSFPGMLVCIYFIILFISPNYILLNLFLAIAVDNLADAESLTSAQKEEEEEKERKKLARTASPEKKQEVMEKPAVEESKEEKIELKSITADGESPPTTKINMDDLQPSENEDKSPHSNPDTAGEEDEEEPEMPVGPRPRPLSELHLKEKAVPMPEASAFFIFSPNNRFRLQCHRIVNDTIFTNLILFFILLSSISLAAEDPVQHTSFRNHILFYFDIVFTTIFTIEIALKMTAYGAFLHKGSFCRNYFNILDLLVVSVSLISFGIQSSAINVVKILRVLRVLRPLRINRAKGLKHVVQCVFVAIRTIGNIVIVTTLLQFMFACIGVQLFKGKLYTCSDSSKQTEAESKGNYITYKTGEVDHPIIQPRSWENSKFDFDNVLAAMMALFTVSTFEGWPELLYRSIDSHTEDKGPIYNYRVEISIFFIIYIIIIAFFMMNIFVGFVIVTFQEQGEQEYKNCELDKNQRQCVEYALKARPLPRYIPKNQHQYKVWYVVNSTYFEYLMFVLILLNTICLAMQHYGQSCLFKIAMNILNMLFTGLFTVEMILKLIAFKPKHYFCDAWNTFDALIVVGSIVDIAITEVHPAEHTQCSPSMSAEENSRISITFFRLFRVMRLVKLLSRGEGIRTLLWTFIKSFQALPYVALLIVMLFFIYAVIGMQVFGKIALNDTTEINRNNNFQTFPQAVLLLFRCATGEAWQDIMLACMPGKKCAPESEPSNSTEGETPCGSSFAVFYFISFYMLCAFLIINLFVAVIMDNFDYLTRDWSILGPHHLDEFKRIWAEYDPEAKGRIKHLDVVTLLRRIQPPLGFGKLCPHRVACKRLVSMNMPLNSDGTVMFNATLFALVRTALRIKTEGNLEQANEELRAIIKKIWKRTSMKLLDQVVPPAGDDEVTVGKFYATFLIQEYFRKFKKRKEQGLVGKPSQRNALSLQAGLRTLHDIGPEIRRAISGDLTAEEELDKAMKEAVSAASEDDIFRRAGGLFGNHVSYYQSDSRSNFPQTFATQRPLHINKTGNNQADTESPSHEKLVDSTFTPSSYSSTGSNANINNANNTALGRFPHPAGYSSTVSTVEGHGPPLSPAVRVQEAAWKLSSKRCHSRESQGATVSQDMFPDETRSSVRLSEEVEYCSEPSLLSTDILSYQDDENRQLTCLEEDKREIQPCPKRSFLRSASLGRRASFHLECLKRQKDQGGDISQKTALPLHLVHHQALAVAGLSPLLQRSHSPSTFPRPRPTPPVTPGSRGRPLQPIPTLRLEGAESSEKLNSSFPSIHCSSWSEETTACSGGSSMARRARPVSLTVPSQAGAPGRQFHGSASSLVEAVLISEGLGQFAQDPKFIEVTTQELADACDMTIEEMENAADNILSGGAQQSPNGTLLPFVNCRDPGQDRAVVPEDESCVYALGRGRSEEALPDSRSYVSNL

IC50 | SMILES
67.4 nM | COCCOCCOC(=O)C1=C(C)NC(C)=C(C(=O)OCCOCCOC)C1c1ccccc1[N+](=O)[O-] [compound (6a) from Example 3, 2,6-dimethyl 4-(2-nitrophenyl)-1,4-dihydropyridine-3,5-dicarboxylic acid dimethoxy di(ethylene glycol)ester]
55.6 nM | CCCCCCOCCOCCOC(=O)C1=C(C)NC(C)=C(C(=O)OCCOCCOCCCCCC)C1c1ccccc1[N+](=O)[O-] [compound (6c) from Example 3, 2,6-dimethyl 4-(2-nitrophenyl)-1,4-dihydropyridine-3,5-dicarboxylic acid dihexoxy di(ethylene glycol)Ester]
160 nM | COCCOCCOCCOC(=O)C1=C(C)NC(C)=C(C(=O)OCCOCCOCCOC)C1c1ccccc1[N+](=O)[O-] [compound (2) from Example 1, 2,6-dimethyl 4-(2-nitrophenyl)-1,4-dihydropyridine-3,5-dicarboxylic acid dimethoxy tri(ethylene glycol)ester]

SMILES | IC50
CCCCOCCOCCOC(=O)C1=C(C)NC(C)=C(C(=O)OCCOCCOCCCC)C1c1ccccc1[N+](=O)[O-] [compound (6b) from Example 3, 2,6-dimethyl 4-(2-nitrophenyl)-1,4-dihydropyridine-3,5-dicarboxylic acid dibutoxy di(ethylene glycol)ester] | 15.5 nM

— US20100184989A1, “De Novo Synthesis of Conjugates” (Nektar Therapeutics, priority 2007, published 2010)
